# According to PubChem BioAssay (NCI):
#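 Exposure lasted 48 hours, with cells grown in 96-well plates and compounds tested at five concentrations. TGI is the concentration that stops growth completely.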
# How the values were obtained:
# Test in all cases: DTP human tumour cell line panel, 48 h
# 786-0 renal = system: 786-0 renal
# MOLT-4 leukemia = system: MOLT-4 leukemia
# KM12 colon = system: KM12 colon
# COLO 205 colon = system: COLO 205 colon
# NCI-H23 lung = system: NCI-H23 lung
# HT29 colon = system: HT29 colon
# SF-268 CNS = system: SF-268 CNS
# UO-31 renal = system: UO-31 renal
# IGROV1 ovarian = system: IGROV1 ovarian
# DMS 114 small cell lung = system: DMS 114 small cell lung
# SK-MEL-28 melanoma = system: SK-MEL-28 melanoma
# ACHN renal = system: ACHN renal
# CAKI-1 renal = system: CAKI-1 renal
# OVCAR-5 ovarian = system: OVCAR-5 ovarian
# UACC-257 melanoma = system: UACC-257 melanoma
# SW-620 colon = system: SW-620 colon
# HOP-92 NSCLC = system: HOP-92 NSCLC
# XF 498 CNS = system: XF 498 CNS
# SK-OV-3 ovarian = system: SK-OV-3 ovarian
# RPMI-8226 leukemia = system: RPMI-8226 leukemia
# HOP-62 NSCLC = system: HOP-62 NSCLC
# SF-295 CNS = system: SF-295 CNS
# M19-MEL melanoma = system: M19-MEL melanoma
# UACC-62 melanoma = system: UACC-62 melanoma
# LOX IMVI melanoma = system: LOX IMVI melanoma
# NCI-H522 lung = system: NCI-H522 lung
# M14 melanoma = system: M14 melanoma
# TK-10 renal = system: TK-10 renal
# K-562 leukemia = system: K-562 leukemia
# A549 NSCLC = system: A549 NSCLC
# DLD-1 colon = system: DLD-1 colon
# EKVX NSCLC = system: EKVX NSCLC
# SNB-19 CNS = system: SNB-19 CNS
# OVCAR-3 ovarian = system: OVCAR-3 ovarian
# HOP-18 NSCLC = system: HOP-18 NSCLC
# CCRF-CEM leukemia = system: CCRF-CEM leukemia
# HL-60(TB) leukemia = system: HL-60(TB) leukemia
# A498 renal = system: A498 renal
# HCC-2998 colon = system: HCC-2998 colon
# SNB-78 CNS = system: SNB-78 CNS
# OVCAR-8 ovarian = system: OVCAR-8 ovarian
# SK-MEL-5 melanoma = system: SK-MEL-5 melanoma
# SNB-75 CNS = system: SNB-75 CNS
# KM20L2 colon = system: KM20L2 colon
# SN12C renal = system: SN12C renal
# MALME-3M melanoma = system: MALME-3M melanoma
# HCT-116 colon = system: HCT-116 colon
# DMS 273 small cell lung = system: DMS 273 small cell lung
# SK-MEL-2 melanoma = system: SK-MEL-2 melanoma
# OVCAR-4 ovarian = system: OVCAR-4 ovarian
# U251 CNS = system: U251 CNS
# NCI-H226 lung = system: NCI-H226 lung
# HCT-15 colon = system: HCT-15 colon
# SF-539 CNS = system: SF-539 CNS
# NCI-H460 lung = system: NCI-H460 lung
# SR leukemia = system: SR leukemia
# LXFL 529 NSCLC = system: LXFL 529 NSCLC
# RXF 393 renal = system: RXF 393 renal
structure (smiles),measurement,setting,value
Cc1cccc(C2=C/C(=C(\SS/C(C(=O)c3ccc(OCC(=O)O)c(Cl)c3Cl)=C3\C=C(c4cccc(C)c4)SS3)C(=O)c3ccc(OCC(=O)O)c(Cl)c3Cl)SS2)c1,TGI,786-0 renal,41.7 µM
same,TGI,MOLT-4 leukemia,40.2 µM
same,TGI,KM12 colon,52.9 µM
same,TGI,COLO 205 colon,38.3 µM
same,TGI,NCI-H23 lung,38.7 µM
same,TGI,HT29 colon,> 75 µM
same,TGI,SF-268 CNS,39.6 µM
same,TGI,UO-31 renal,32.2 µM
same,TGI,IGROV1 ovarian,44.8 µM
same,TGI,DMS 114 small cell lung,17.7 µM
same,TGI,SK-MEL-28 melanoma,87.4 µM
same,TGI,ACHN renal,37.7 µM
same,TGI,CAKI-1 renal,66.3 µM
same,TGI,OVCAR-5 ovarian,> 86.2 µM
same,TGI,UACC-257 melanoma,> 77.3 µM
same,TGI,SW-620 colon,49.8 µM
same,TGI,HOP-92 NSCLC,23.1 µM
same,TGI,XF 498 CNS,54.6 µM
same,TGI,SK-OV-3 ovarian,> 100 µM
same,TGI,RPMI-8226 leukemia,41.4 µM
same,TGI,HOP-62 NSCLC,> 100 µM
same,TGI,SF-295 CNS,> 85.6 µM
same,TGI,M19-MEL melanoma,> 60.1 µM
same,TGI,UACC-62 melanoma,38.5 µM
same,TGI,LOX IMVI melanoma,18 µM
same,TGI,NCI-H522 lung,8.14 µM
same,TGI,M14 melanoma,51.3 µM
same,TGI,TK-10 renal,> 88.2 µM
same,TGI,K-562 leukemia,36.2 µM
same,TGI,A549 NSCLC,> 100 µM
same,TGI,DLD-1 colon,> 100 µM
same,TGI,EKVX NSCLC,> 100 µM
same,TGI,SNB-19 CNS,43.7 µM
same,TGI,OVCAR-3 ovarian,50.8 µM
same,TGI,HOP-18 NSCLC,50.5 µM
same,TGI,CCRF-CEM leukemia,19.4 µM
same,TGI,HL-60(TB) leukemia,4.71 µM
same,TGI,A498 renal,49.4 µM
same,TGI,HCC-2998 colon,> 100 µM
same,TGI,SNB-78 CNS,80.6 µM
same,TGI,OVCAR-8 ovarian,> 73.6 µM
same,TGI,SK-MEL-5 melanoma,47.8 µM
same,TGI,SNB-75 CNS,> 83.5 µM
same,TGI,KM20L2 colon,> 100 µM
same,TGI,SN12C renal,65.1 µM
same,TGI,MALME-3M melanoma,74.9 µM
same,TGI,HCT-116 colon,> 53.8 µM
same,TGI,DMS 273 small cell lung,83.6 µM
same,TGI,SK-MEL-2 melanoma,39.8 µM
same,TGI,OVCAR-4 ovarian,> 70.2 µM
same,TGI,U251 CNS,14.3 µM
same,TGI,NCI-H226 lung,35.6 µM
same,TGI,HCT-15 colon,> 51.6 µM
same,TGI,SF-539 CNS,39.9 µM
same,TGI,NCI-H460 lung,> 68.1 µM
CC(C(=O)N1C(=O)N(C(=O)C(C)C(O)c2ccccc2)C2CCCCC21)C(O)c1ccccc1 (centres undefined),TGI,786-0 renal,> 100 µM
same,TGI,MOLT-4 leukemia,87.1 µM
same,TGI,KM12 colon,> 100 µM
same,TGI,COLO 205 colon,> 100 µM
same,TGI,NCI-H23 lung,> 100 µM
same,TGI,SF-268 CNS,> 100 µM
same,TGI,UO-31 renal,> 100 µM
same,TGI,IGROV1 ovarian,> 100 µM
same,TGI,SK-MEL-28 melanoma,> 100 µM
same,TGI,ACHN renal,> 100 µM
same,TGI,OVCAR-5 ovarian,> 100 µM
same,TGI,SW-620 colon,> 100 µM
same,TGI,XF 498 CNS,> 100 µM
same,TGI,RPMI-8226 leukemia,> 100 µM
same,TGI,HOP-62 NSCLC,> 100 µM
same,TGI,SF-295 CNS,> 100 µM
same,TGI,M19-MEL melanoma,> 100 µM
same,TGI,UACC-62 melanoma,> 100 µM
same,TGI,SR leukemia,> 100 µM
same,TGI,LOX IMVI melanoma,> 100 µM
same,TGI,NCI-H522 lung,> 100 µM
same,TGI,M14 melanoma,> 100 µM
same,TGI,TK-10 renal,> 100 µM
same,TGI,A549 NSCLC,> 100 µM
same,TGI,EKVX NSCLC,> 100 µM
same,TGI,SNB-19 CNS,> 100 µM
same,TGI,OVCAR-3 ovarian,> 100 µM
same,TGI,CCRF-CEM leukemia,> 100 µM
same,TGI,HL-60(TB) leukemia,70 µM
same,TGI,LXFL 529 NSCLC,> 100 µM
same,TGI,SNB-78 CNS,> 100 µM
same,TGI,OVCAR-8 ovarian,> 100 µM
same,TGI,SK-MEL-5 melanoma,> 100 µM
same,TGI,KM20L2 colon,> 100 µM
same,TGI,SN12C renal,> 100 µM
same,TGI,MALME-3M melanoma,> 100 µM
same,TGI,HCT-116 colon,> 100 µM
same,TGI,DMS 273 small cell lung,> 100 µM
same,TGI,SK-MEL-2 melanoma,> 100 µM
same,TGI,OVCAR-4 ovarian,> 100 µM
same,TGI,U251 CNS,> 100 µM
same,TGI,HCT-15 colon,> 100 µM
same,TGI,RXF 393 renal,> 100 µM
same,TGI,NCI-H460 lung,> 100 µM
